In patent US11008572B2, “Methods and compositions for modulating splicing” (SKYHAWK THERAPEUTICS, INC., priority 2017, dated 2021):
Like-named read-outs stand apart in the source and are kept apart here.

Assays:
[1] = tested on: FOXM1^A2 mRNA and FOXM1^BC mRNA; assay: Splicing assay (FOXM1), qPCR of isoform mRNAs; format: cell-based; details: for IC50: FoxM1 BC mRNA decrease (exon included)
Description: Various cells lines were treated with the SMSMs described herein. RNA was then isolated, cDNA synthesized, qPCR performed and the levels of various mRNA targets of the SMSMs were determined. In some instances, RNA was isolated, cDNA synthesized, qPCR performed and the levels of mRNA isoforms in the various cell samples were determined.
On the day of the experiment, a 96-well plate was seeded with the cell lines of interest. The cells were diluted with full growth media to a concentration of 2.0×10^5 cells/mL and 100 μL of cells were added to each well (20,000 cells per well). The cells were treated with a compound immediately after plating.
The compounds were then added to the cell plate using the HP compound dispenser. In the initial experiment, a top concentration of 10 μM and an 8 point 4-fold dilution scheme was used. The stock compounds were made at a concentration of 5 mM, and the DMSO concentration was set to 0.2%. DMSO was used to normalize all the compound-containing wells and the untreated cells.
The treated cells were incubated at 37° C. in a 5% CO2 incubator for the desired amount of time. Plates were placed in a plastic bag with a wet paper towel to prevent evaporation.
RNA was isolated using the Cells to CT kit (ThermoFisher, AM1728). The cells were washed once with 100 μL cold PBS. 50 μL of lysis buffer was added to each well/tube (49.5 μL lysis buffer+0.5 μL DNase I per well/tube). The lysis reaction was mixed and incubated at room temperature for 5 minutes. 5 μL of stop solution was added directly into each cell lysis reaction and mixed by pipetting up and down 5 times. The plates/tubes were incubated at room temperature for 2 minutes then placed on ice if the cDNA synthesis was to be performed immediately. Otherwise, the plates/tubes were stored at −80° C. cDNA synthesis reactions were then performed. Reverse Transcription (RT) Master mix was prepared according to the table below.
40 μL RT master mix was added to PCR tubes or plate wells. 10 μL of RNA was added to each tube/well. The RT thermal cycler program was then run and tubes or plate wells were incubated at 37° C. for 1 hour, then at 95° C. for 5 minutes to deactivate the enzyme.
The qPCR was performed using a QuantStudio 6 instrument (ThermoFisher) and the following cycling conditions and according to the tables below. All samples and standards were analyzed in triplicate. Cycle 1: 2 minutes at 50° C. Cycle 2: 10 minutes at 95° C. Cycle 3 (repeat 40 times): 15 seconds at 95° C., 1 minute at 60° C.
The determined isoform 2and isoform 1quantities were then be used to determine the isoform 2: […] at the various compound concentrations. The PPIA quantities were used in the normalization to account of cell proliferation effects of the compounds.
The dilution necessary to make the top standard is calculated. A top concentration 200,000,000 copies/μL of the stock plasmid was prepared in TE buffer. A series of 10-fold dilutions, also in TE, were then made. A total of 5 μL of each standard was used in a qPCR well to generate samples containing 109 copies, […], 10^7copies, 10^6 copies, 10^5 copies, 10^4 copies, 10^3 copies, 10^2 copies, 10^1copies, and 0 copies.
An assay to measure the FOXM1^A2 mRNA and FOXM1^BC mRNA, or MADD^WT (isoform 4) mRNA and MADD^Ex16 (isoform 3) mRNA, or MAPTau^4R mRNA and MAPTau^3R mRNA simultaneously in cell wells was performed. The RNA values were measured relative to DMSO control and also included a housekeeping gene, PPIA to ensure data was consistent. The mRNA values were measured after 24 hours of incubation with the SMSM compounds.

A-673 cells = assay: Cell viability, crystal violet staining; format: cell-based; details: Homo sapiens, A673, cell viability
How it was run: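 Readout is absorbance at 570 nm of crystal violet, taken up in 0.1 M sodium citrate in 50% ethanol after staining with 0.5% dye in 25% methanol. Plates held 5×10^3 cells per well, and compounds were added one day after seeding for 72 hours. Data are relative to vehicle, mean±SE.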

[2] = read-out: Splice IC50 (nM) FoxM1 BC mRNA decrease (exon included)
[3] = read-out: Splice EC50 (nM) FoxM1 A mRNA increase (exon excluded)
[4] = read-out: A-673 IC50 (nM) Cell viability
[5] = 24 h, 0.1-1000 nM, 24 hours, read-out: Splice IC50 (nM), FoxM1 BC mRNA decrease (exon included)
[6] = FoxM1 A mRNA increase (exon excluded), 0.1-1000 nM, 24 hours, read-out: Splice EC50 (nM), FoxM1 A mRNA increase (exon excluded)
[7] = read-out: A-673 IC50 (nM), Cell viability

| SMILES | IC50 [1, 2] | EC50 [1, 3] | IC50 (A-673 cells; [4]) | IC50 [1, 5] | EC50 [1, 6] | IC50 (A-673 cells; [7]) |
| --- | --- | --- | --- | --- | --- | --- |
| CNC(=O)c1cc2cc(O)c(-c3ccc(N(C)[C@H]4C[C@]5(C)CC[C@](C)(C4)N5)nn3)cc2o1 [compound 188, 6-(6-(((1R,3s,5S)-1,5-dimethyl-8-azabicyclo[3.2.1]octan-3-yl)(methyl)amino)pyridazin-3-yl)-5-hydroxy-N-methylbenzofuran-2-carboxamide] | 10 to 100 nM | < 10 nM | 10 to 100 nM |  |  |  |
| Oc1cc(-c2nnn[nH]2)ccc1-c1ccc(O[C@@H]2C[C@H]3CC[C@@H](C2)N3)nn1 [compound 254, 2-(6-(((1R,3s,5S)-8-azabicyclo[3.2.1]octan-3-yl)oxy)pyridazin-3-yl)-5-(1H-tetrazol-5-yl)phenol] |  |  |  | > 1000 nM | > 1000 nM | > 1000 nM |
| CN(c1ccc(-c2ccc(-c3cn[nH]c3)cc2O)nn1)[C@@H]1C[C@H]2CNC[C@H]2C1 [compound 143, 2-(6-(methyl((3R,5s,6S)-octahydrocyclopenta[c]pyrrol-5-yl)amino)pyridazin-3-yl)-5-(1H-pyrazol-4-yl)phenol] | 501 to 1000 nM | 251 to 500 nM | > 1000 nM |  |  |  |
| Cc1ccn(-c2ccc(-c3ccc(N(C)[C@@H]4C[C@H]5CC[C@@H](C4)N5)nn3)c(O)c2)n1 [compound 222, 2-(6-(((1R,3s,5S)-8-azabicyclo[3.2.1]octan-3-yl)(methyl)amino)pyridazin-3-yl)-5-(3-methyl-1H-pyrazol-1-yl)phenol] |  |  |  | 10 to 100 nM | < 10 nM | 10 to 100 nM |
| Cc1cc(-c2ccc(N(C)[C@H]3C[C@]4(C)CC[C@](C)(C3)N4)nn2)c(O)cc1-c1cn[nH]c1 [compound 182, 2-(6-(((1R,3s,5S)-1,5-dimethyl-8-azabicyclo[3.2.1]octan-3-yl)(methyl)amino)pyridazin-3-yl)-4-methyl-5-(1H-pyrazol-4-yl)phenol] | < 10 nM | < 10 nM | 10 to 100 nM |  |  |  |
| CN(c1ccc(-c2cc(F)c(-c3ccn(C)c(=O)c3)cc2O)nn1)[C@@H]1C[C@H]2CCC[C@@H](C1)N2 [compound 285, 4-(4-(6-(((1R,3s,5S)-9-azabicyclo[3.3.1]nonan-3-yl)(methyl)amino)pyridazin-3-yl)-2-fluoro-5-hydroxyphenyl)-1-methylpyridin-2(1H)-one] |  |  |  | < 10 nM | > 1000 nM | < 10 nM |
| Cc1cc(-c2ccc(-c3ccc(O[C@@H]4C[C@H]5CC[C@@H](C4)N5)nn3)c(O)c2)on1 [compound 256, 2-(6-(((1R,3s,5S)-8-azabicyclo[3.2.1]octan-3-yl)oxy)pyridazin-3-yl)-5-(3-methylisoxazol-5-yl)phenol] |  |  |  | > 1000 nM | > 1000 nM | > 1000 nM |
| Cc1cn(-c2ccc(-c3ccc(N(C)[C@@H]4C[C@H]5CC[C@@H](C4)N5)nn3)c(O)c2)c(C)n1 [compound 231, 2-(6-(((1R,3s,5S)-8-azabicyclo[3.2.1]octan-3-yl)(methyl)amino)pyridazin-3-yl)-5-(2,4-dimethyl-1H-imidazol-1-yl)phenol] |  |  |  | 501 to 1000 nM | 251 to 500 nM | > 1000 nM |
| [2H]C([2H])([2H])c1ncc(-c2cc(O)c(-c3ccc(N(C)[C@H]4C[C@]5(C)CC[C@](C)(C4)N5)nn3)cc2F)o1 [compound 304, 2-(6-(((1R,3s,5S)-1,5-dimethyl-8-azabicyclo[3.2.1]octan-3-yl)(methyl)amino)pyridazin-3-yl)-4-fluoro-5-(2-(methyl-d3)oxazol-5-yl)phenol] |  |  |  | < 10 nM | > 1000 nM | 10 to 100 nM |
| CC1(C)CC(N(c2ccc(-c3ccc(-c4cn[nH]c4)cc3O)nn2)C2CCC2)CC(C)(C)N1 [compound 130, 2-(6-(cyclobutyl(2,2,6,6-tetramethylpiperidin-4-yl)amino)pyridazin-3-yl)-5-(1H-pyrazol-4-yl)phenol] | > 1000 nM | > 1000 nM | > 1000 nM |  |  |  |
| Oc1cc(-c2cn[nH]c2)ccc1-c1ccc(N2CCC3CNCCC32)nn1 (stereo not drawn) [compound 131, 2-(6-(octahydro-1H-pyrrolo[3,2-c]pyridin-1-yl)pyridazin-3-yl)-5-(1H-pyrazol-4-yl)phenol] | 251 to 500 nM | 101 to 250 nM | > 1000 nM |  |  |  |
| CN(c1ccc(-c2ccc(-c3nnc(C(F)(F)F)o3)cc2O)nn1)[C@@H]1C[C@H]2CC[C@@H](C1)N2 [compound 232, 2-(6-(((1R,3s,5S)-8-azabicyclo[3.2.1]octan-3-yl)(methyl)amino)pyridazin-3-yl)-5-(5-(trifluoromethyl)-1,3,4-oxadiazol-2-yl)phenol] |  |  |  | 501 to 1000 nM | 101 to 250 nM | > 1000 nM |
| CN(c1ccc(-c2ccc(-c3cn[nH]c3)cc2O)nn1)[C@@H]1[C@@H]2CC[C@H]1CNC2 [compound 144, 2-(6-(((1R,5S,8s)-3-azabicyclo[3.2.1]octan-8-yl)(methyl)amino)pyridazin-3-yl)-5-(1H-pyrazol-4-yl)phenol] | > 1000 nM | > 1000 nM | 501 to 1000 nM |  |  |  |
| CN(c1ccc(-c2ccc(-c3ccn(CF)c(=O)c3)cc2O)nn1)[C@H]1C[C@]2(C)CC[C@](C)(C1)N2 [compound 187, 4-(4-(6-(((1R,3s,5S)-1,5-dimethyl-8-azabicyclo[3.2.1]octan-3-yl)(methyl)amino)pyridazin-3-yl)-3-hydroxyphenyl)-1-(fluoromethyl)pyridin-2(1H)-one] | < 10 nM | < 10 nM | 10 to 100 nM |  |  |  |
| Oc1cc(-c2cn[nH]c2)ccc1-c1ccc(O[C@H]2CC3CCC[C@@H](C2)N3)nn1 [compound 277, 2-(6-(((1R,3r,5S)-9-azabicyclo[3.3.1]nonan-3-yl)oxy)pyridazin-3-yl)-5-(1H-pyrazol-4-yl)phenol] |  |  |  | > 1000 nM | > 1000 nM | > 1000 nM |
| COCCN(c1ccc(-c2ccc(-c3cn[nH]c3)cc2O)nn1)C1CC(C)(C)NC(C)(C)C1 [compound 133, 2-(6-((2-methoxyethyl)(2,2,6,6-tetramethylpiperidin-4-yl)amino)pyridazin-3-yl)-5-(1H-pyrazol-4-yl)phenol] | > 1000 nM | 501 to 1000 nM | > 1000 nM |  |  |  |
| Oc1cc(-c2cn[nH]c2)ccc1-c1ccc(O[C@H]2C[C@H]3COC[C@@H](C2)N3)nn1 [compound 158, 2-(6-(((1R,5S,7s)-3-oxa-9-azabicyclo[3.3.1]nonan-7-yl)oxy)pyridazin-3-yl)-5-(1H-pyrazol-4-yl)phenol] | > 1000 nM | > 1000 nM | > 1000 nM |  |  |  |
| CN(c1ccc(-c2ccc(-n3cncn3)cc2O)nn1)[C@@H]1C[C@H]2CC[C@@H](C1)N2 [compound 243] |  |  |  | 10 to 100 nM | < 10 nM | 10 to 100 nM |
| CN(c1cnc(-c2ccc(-c3cn[nH]c3)cc2O)nc1)C1CC(C)(C)NC(C)(C)C1 [compound 134, 2-(5-(methyl(2,2,6,6-tetramethylpiperidin-4-yl)amino)pyrimidin-2-yl)-5-(1H-pyrazol-4-yl)phenol] | > 1000 nM | > 1000 nM | > 1000 nM |  |  |  |
